Data: ChEMBL document CHEMBL5291721, “A preclinical secondary pharmacology resource illuminates target-adverse drug reaction associations of marketed drugs” (Nat Commun, 2023)

Key:
Bile salt export pump = Bile salt export pump (Homo sapiens, UniProt O95342); assay type: functional
[1] = biological target: T1, Alpha-2A adrenergic receptor (Homo sapiens, UniProt P08913); assay type: functional, cell-based
T1 sequence (P08913 whole entry): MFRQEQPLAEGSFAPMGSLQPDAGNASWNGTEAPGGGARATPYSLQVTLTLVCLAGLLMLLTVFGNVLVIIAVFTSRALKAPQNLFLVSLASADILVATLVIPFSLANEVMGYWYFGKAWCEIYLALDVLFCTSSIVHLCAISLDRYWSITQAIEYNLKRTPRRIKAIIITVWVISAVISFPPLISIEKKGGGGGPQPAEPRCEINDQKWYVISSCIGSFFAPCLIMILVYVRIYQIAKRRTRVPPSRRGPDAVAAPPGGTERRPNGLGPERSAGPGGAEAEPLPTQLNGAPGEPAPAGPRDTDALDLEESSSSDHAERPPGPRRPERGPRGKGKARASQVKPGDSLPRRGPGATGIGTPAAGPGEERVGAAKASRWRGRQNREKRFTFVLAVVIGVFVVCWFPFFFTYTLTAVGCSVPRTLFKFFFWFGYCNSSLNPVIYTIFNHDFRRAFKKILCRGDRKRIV

[2] = biological target: T2, Alpha-2C adrenergic receptor (Homo sapiens, UniProt P18825); assay type: functional
T2 sequence (P18825 whole entry): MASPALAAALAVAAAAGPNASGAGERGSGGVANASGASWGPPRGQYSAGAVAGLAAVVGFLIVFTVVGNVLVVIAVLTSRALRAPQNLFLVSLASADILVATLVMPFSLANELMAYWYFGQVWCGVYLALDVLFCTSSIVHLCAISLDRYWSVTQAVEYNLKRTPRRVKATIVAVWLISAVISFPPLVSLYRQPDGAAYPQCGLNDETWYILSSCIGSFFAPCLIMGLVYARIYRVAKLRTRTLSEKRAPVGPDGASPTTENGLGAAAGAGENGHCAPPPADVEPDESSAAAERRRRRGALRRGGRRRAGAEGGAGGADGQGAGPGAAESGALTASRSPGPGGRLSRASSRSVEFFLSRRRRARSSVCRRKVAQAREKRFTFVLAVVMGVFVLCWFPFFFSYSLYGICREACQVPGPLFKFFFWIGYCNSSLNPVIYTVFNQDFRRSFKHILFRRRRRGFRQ

[3] = biological target: T3, 5-hydroxytryptamine receptor 2C (Homo sapiens, UniProt P28335)
T3 sequence (P28335 whole entry): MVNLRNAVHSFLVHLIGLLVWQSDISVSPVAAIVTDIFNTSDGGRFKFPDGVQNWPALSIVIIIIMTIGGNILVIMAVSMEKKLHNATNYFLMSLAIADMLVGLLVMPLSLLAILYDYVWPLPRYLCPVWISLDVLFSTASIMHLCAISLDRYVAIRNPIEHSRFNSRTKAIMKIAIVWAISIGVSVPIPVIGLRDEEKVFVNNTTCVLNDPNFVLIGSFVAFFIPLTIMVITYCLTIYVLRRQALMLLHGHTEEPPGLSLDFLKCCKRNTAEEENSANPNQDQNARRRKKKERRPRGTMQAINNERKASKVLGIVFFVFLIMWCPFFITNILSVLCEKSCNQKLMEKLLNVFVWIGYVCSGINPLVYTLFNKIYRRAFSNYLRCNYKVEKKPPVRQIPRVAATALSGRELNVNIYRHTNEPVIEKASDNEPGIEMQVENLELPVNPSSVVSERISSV

[4] = biological target: T4, Prostaglandin G/H synthase 1 (Rattus norvegicus, UniProt Q63921); assay type: functional
T4 sequence (Q63921 whole entry): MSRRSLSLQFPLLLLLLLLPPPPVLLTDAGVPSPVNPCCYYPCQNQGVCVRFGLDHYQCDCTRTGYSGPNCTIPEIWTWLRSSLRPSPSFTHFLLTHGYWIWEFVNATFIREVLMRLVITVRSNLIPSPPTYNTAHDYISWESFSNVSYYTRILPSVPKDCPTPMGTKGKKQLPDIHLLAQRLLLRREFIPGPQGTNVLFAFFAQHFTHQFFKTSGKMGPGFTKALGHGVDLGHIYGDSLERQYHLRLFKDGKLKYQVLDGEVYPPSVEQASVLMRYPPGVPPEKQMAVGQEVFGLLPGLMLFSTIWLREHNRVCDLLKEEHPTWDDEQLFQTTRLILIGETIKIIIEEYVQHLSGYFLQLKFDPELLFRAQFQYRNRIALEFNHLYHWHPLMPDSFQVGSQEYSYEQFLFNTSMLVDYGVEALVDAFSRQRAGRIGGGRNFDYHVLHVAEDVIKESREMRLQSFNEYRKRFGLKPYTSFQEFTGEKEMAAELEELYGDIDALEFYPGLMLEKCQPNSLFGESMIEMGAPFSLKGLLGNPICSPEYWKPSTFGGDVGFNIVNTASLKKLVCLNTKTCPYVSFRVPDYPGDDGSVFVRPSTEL

[5] = biological target: Sodium-dependent dopamine transporter (Homo sapiens, UniProt Q01959)
Chain of Sodium-dependent dopamine transporter (Q01959 whole entry): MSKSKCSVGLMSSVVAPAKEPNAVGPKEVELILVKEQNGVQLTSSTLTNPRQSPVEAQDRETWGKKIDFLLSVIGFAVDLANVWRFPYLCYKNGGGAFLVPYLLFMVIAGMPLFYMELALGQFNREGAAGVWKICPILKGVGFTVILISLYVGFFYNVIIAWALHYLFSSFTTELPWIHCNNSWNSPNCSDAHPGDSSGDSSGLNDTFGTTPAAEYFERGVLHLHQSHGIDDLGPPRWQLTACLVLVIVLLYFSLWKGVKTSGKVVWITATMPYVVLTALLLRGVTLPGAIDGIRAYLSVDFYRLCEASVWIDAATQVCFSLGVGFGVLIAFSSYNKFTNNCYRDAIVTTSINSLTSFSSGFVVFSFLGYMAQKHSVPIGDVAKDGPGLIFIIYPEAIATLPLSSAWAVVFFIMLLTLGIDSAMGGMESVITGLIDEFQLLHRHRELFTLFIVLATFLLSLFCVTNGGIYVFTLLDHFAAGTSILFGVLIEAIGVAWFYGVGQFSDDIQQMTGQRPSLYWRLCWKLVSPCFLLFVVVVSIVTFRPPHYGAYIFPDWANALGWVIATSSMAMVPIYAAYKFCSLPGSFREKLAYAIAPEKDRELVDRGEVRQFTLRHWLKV

[6] = biological target: cGMP-inhibited 3',5'-cyclic phosphodiesterase 3A (Homo sapiens, UniProt Q14432); assay type: functional
Chain of cGMP-inhibited 3',5'-cyclic phosphodiesterase 3A (Q14432 whole entry): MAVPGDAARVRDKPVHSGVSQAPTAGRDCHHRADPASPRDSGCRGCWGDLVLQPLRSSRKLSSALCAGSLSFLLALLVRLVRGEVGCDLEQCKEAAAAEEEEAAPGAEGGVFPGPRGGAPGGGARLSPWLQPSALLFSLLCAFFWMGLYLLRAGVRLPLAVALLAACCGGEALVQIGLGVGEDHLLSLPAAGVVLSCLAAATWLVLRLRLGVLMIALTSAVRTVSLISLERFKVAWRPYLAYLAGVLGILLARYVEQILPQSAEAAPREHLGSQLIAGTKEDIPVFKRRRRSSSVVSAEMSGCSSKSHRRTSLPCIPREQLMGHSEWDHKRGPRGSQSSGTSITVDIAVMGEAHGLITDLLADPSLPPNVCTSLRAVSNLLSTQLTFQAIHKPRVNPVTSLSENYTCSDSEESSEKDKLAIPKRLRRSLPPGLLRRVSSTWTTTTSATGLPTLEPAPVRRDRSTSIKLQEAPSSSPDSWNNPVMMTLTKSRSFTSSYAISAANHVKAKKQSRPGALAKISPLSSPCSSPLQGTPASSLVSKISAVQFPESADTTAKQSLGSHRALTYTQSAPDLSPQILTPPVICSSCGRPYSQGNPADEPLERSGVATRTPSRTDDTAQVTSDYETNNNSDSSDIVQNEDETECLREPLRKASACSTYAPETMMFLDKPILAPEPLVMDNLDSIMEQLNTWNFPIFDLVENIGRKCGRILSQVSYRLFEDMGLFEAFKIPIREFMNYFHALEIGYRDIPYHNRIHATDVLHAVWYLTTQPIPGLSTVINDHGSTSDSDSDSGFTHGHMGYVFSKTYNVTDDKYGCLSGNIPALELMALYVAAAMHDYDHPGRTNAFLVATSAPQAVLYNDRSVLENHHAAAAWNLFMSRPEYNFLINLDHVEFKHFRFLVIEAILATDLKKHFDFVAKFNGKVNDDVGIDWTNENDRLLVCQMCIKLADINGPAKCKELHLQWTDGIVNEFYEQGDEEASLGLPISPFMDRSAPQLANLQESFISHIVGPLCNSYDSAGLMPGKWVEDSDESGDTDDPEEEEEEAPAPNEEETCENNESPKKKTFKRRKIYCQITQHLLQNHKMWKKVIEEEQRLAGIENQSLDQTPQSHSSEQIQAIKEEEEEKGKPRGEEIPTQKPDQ

[7] = biological target: Beta-2 adrenergic receptor (Homo sapiens, UniProt P07550)
Chain of Beta-2 adrenergic receptor (P07550 whole entry): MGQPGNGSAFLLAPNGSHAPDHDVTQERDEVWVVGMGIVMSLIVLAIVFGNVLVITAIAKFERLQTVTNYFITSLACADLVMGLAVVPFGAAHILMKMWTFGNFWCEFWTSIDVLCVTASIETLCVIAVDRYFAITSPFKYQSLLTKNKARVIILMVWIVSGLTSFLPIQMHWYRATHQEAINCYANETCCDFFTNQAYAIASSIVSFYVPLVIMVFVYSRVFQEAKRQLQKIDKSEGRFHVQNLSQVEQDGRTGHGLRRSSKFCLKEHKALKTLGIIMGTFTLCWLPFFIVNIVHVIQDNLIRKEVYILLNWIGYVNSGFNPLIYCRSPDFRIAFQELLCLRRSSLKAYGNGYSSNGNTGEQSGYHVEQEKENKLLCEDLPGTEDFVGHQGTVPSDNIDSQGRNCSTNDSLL
Also: assay procedure not described here.

Chain of Bile salt export pump (O95342 whole entry): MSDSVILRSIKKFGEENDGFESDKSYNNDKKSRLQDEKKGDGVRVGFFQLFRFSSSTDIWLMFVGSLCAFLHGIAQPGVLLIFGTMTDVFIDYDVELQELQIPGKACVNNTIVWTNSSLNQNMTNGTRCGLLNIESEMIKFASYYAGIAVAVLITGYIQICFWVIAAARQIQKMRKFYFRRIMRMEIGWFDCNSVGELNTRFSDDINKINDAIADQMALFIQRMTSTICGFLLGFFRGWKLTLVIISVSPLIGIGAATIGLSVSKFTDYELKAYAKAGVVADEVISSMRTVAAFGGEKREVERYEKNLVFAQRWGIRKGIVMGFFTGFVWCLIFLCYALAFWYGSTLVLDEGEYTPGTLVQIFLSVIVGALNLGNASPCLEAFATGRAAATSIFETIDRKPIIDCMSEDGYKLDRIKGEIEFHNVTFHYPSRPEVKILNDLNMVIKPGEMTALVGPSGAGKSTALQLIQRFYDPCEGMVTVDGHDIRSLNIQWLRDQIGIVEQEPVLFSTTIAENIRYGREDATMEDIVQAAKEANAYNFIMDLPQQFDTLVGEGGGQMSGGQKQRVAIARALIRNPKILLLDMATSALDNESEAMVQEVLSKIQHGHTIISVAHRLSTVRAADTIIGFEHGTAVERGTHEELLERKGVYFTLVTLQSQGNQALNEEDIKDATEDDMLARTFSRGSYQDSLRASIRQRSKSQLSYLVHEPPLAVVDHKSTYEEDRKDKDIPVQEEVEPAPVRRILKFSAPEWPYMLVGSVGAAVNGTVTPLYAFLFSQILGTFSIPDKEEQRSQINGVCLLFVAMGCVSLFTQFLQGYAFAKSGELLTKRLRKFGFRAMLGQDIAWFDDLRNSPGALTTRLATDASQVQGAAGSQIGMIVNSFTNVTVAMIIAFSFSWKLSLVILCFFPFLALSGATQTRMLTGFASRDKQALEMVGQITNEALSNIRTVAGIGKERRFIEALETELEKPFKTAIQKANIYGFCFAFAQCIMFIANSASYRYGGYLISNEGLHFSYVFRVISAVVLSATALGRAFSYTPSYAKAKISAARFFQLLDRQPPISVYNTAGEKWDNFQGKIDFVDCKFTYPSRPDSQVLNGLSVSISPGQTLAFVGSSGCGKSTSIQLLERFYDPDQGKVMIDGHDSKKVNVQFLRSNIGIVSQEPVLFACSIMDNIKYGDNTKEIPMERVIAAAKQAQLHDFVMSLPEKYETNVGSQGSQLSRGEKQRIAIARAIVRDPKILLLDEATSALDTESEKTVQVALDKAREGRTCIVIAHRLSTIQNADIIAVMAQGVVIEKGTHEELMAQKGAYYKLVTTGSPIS

Row | Compound | AC50 (Bile salt export pump) [µM] | AC50 [1] [µM] | AC50 [2] [µM] | AC50 [3] [µM] | AC50 [4] [µM] | AC50 [5] [µM] | AC50 [6] [µM] | AC50 [7] [µM]
1 | CCOc1cc([C@@H](CS(C)(=O)=O)N2C(=O)c3cccc(NC(C)=O)c3C2=O)ccc1OC | 139 | > 30 | > 30 | > 30 | > 30 | > 30 | > 30 | 
2 | CC(=O)NO [ACETOHYDROXAMIC ACID] | > 300 |  |  |  |  |  |  | 
3 | C[C@H]1CN(C[C@H](Cc2ccccc2)C(=O)NCC(=O)O)CC[C@@]1(C)c1cccc(O)c1 [ALVIMOPAN] | > 300 |  |  |  |  |  |  | 
4 | CC(C(=O)O)c1ccc2oc(-c3ccc(Cl)cc3)nc2c1 (centres undefined) [BENOXAPROFEN] | 120 | > 30 | > 30 | > 30 |  | > 30 | > 30 | > 30
5 | O=C(O)c1ccccc1 [BENZOIC ACID] | 260 |  |  |  |  |  |  | 
6 | Nc1c(CC(=O)O)cccc1C(=O)c1ccc(Br)cc1 [BROMFENAC] | 88 |  |  |  |  |  |  | 
7 | CC1(C)S[C@@H]2[C@H](NC(=O)C(C(=O)O)c3ccccc3)C(=O)N2[C@H]1C(=O)O (some centres undefined) [CARBENICILLIN] | 210 | > 30 | > 30 | > 30 | > 30 | > 30 | > 30 | 
8 | Cc1nnc(SCC2=C(C(=O)O)N3C(=O)[C@@H](NC(=O)Cn4cnnn4)[C@H]3SC2)s1 [CEFAZOLIN] | > 300 | > 300 | > 300 | > 300 | 160 | > 300 | > 300 | 
9 | CC(C)(O/N=C(\C(=O)N[C@@H]1C(=O)N2C(C(=O)[O-])=C(C[n+]3ccccc3)CS[C@H]12)c1csc(N)n1)C(=O)O [CEFTAZIDIME] | > 300 | > 300 | > 300 | > 300 | > 300 | > 300 | > 300 | 
10 | CC(C)NC(=N)NC(=N)Nc1ccc(Cl)c(Cl)c1 [CHLORPROGUANIL] |  | > 30 | 8.9 | 7.9 |  |  | > 30 | 
11 | Cc1cc(C2CCCCC2)n(O)c(=O)c1 [CICLOPIROX] |  |  | > 30 |  | > 3 | > 30 | > 30 | 
12 | C[N+](C)(C)CCOP(=O)(O)OP(=O)([O-])OC[C@H]1O[C@@H](n2ccc(N)nc2=O)[C@H](O)[C@@H]1O [CITICOLINE] |  | > 30 | > 30 | > 30 |  |  | > 30 | 
13 | Clc1ccc(Cn2c(CN3CCCC3)nc3ccccc32)cc1 [CLEMIZOLE] | 29 | > 10 | > 30 | > 30 | > 30 | 24 | > 30 | 
14 | CCC(=O)O[C@]1(C(=O)CCl)[C@@H](C)C[C@H]2[C@@H]3CCC4=CC(=O)C=C[C@]4(C)[C@@]3(F)[C@@H](O)C[C@@]21C [CLOBETASOL PROPIONATE] | 23 | > 30 | > 30 | > 30 | > 30 | > 30 | > 30 | 
15 | CC(C)Cc1ccc([C@H](C)C(=O)O)cc1 [DEXIBUPROFEN] | 188 | > 30 | > 30 | > 30 |  | > 30 | > 30 | 
16 | O=C(O)Cc1ccccc1Nc1c(Cl)cccc1Cl [DICLOFENAC] | > 300 | > 10 | > 10 | > 10 |  | > 30 | > 30 | > 10
17 | CNC[C@H](O)c1ccc(O)c(O)c1 [EPINEPHRINE] | > 300 |  |  | > 30 | > 30 | > 30 | > 30 | 
18 | O=C(O)Cc1ccccc1Oc1ccc(Cl)cc1Cl [FENCLOFENAC] |  | > 10 | > 10 | > 30 | > 30 | > 10 | > 30 | > 10

Row | Compound | AC50 (Bile salt export pump) [µM] | AC50 [1] [µM] | AC50 [2] [µM] | AC50 [3] [µM] | AC50 [4] [µM] | AC50 [5] [µM] | AC50 [6] [µM] | AC50 [7] [µM]
19 | CC(C(=O)O)c1cccc(Oc2ccccc2)c1 (centres undefined) [FENOPROFEN] | > 300 |  |  |  |  |  |  | 
20 | Cc1onc(-c2c(F)cccc2Cl)c1C(=O)N[C@@H]1C(=O)N2[C@@H]1SC(C)(C)[C@@H]2C(=O)O [FLOXACILLIN] | 50 | > 30 | > 30 | > 30 | > 30 | > 30 | > 30 | 
21 | COc1ccccc1OC1(C)OC(=O)c2ccccc2O1 (centres undefined) [GUAIMESAL] |  |  |  |  |  | > 30 |  | > 30
22 | Cc1cc(=O)oc2cc(O)ccc12 [HYMECROMONE] | > 300 |  |  |  |  |  |  | 
23 | COc1cc(C(C)=O)ccc1OCCCN1CCC(c2noc3cc(F)ccc23)CC1 [ILOPERIDONE] | 40 | 0.45 | 0.018 | 0.803 | > 30 | 5.95 |  | > 10
24 | C[N+]1(C)CCCC(OC(=O)C(O)(c2ccccc2)c2ccccc2)C1 (centres undefined) [MEPENZOLATE] | > 300 |  |  |  |  |  |  | 
25 | CN(C)c1ccc(O)c2c1C[C@H]1C[C@H]3[C@H](N(C)C)C(O)=C(C(N)=O)C(=O)[C@@]3(O)C(O)=C1C2=O [MINOCYCLINE] | 83 |  |  |  |  |  |  | 
26 | CN1Cc2c(N)cccc2C(c2ccccc2)C1 (centres undefined) [NOMIFENSINE] | > 300 | > 30 | > 30 |  | 7.5 |  | > 30 | 
27 | C=CC(=O)Nc1cccc(Oc2nc(Nc3ccc(N4CCN(C)CC4)cc3)nc3ccsc23)c1 [OLMUTINIB] | 13 |  |  |  |  |  |  | 
28 | CC(CN1c2ccccc2Sc2ccccc21)N(C)C (centres undefined) [PROMETHAZINE] | > 300 |  | 3 | 0.5 | > 30 | > 10 | > 30 | > 10
29 | C[N+](C)(C)CCOC(=O)CCC(=O)OCC[N+](C)(C)C [SUXAMETHONIUM] | > 300 |  |  |  |  |  |  | 
30 | S=P(N1CC1)(N1CC1)N1CC1 [THIOTEPA] | 83 | 14 | 4.4 | 9.4 | > 30 | 27 | > 30 | 
31 | Cc1ccc(C(=O)c2ccc(CC(=O)O)n2C)cc1 [TOLMETIN] | > 300 |  |  |  |  |  |  | 
32 | Cc1ccccc1C(=O)Nc1ccc(C(=O)N2CCCC(O)c3cc(Cl)ccc32)c(C)c1 (centres undefined) [TOLVAPTAN] | 7.87 |  |  |  |  |  |  | 
33 | CC(C)C[C@H](NC(=O)[C@@H](O)[C@H](N)Cc1ccccc1)C(=O)O [UBENIMEX] |  | > 30 | > 30 | > 30 | > 30 | > 30 | > 30 | 
34 | COc1cc(C(=O)NS(=O)(=O)c2ccccc2C)ccc1Cc1cn(C)c2ccc(NC(=O)OC3CCCC3)cc12 [ZAFIRLUKAST] | 2.28 |  |  |  | 5.1 | > 10 | 14 | > 10
35 | O=C1Cc2cc(CCN3CCN(c4nsc5ccccc45)CC3)c(Cl)cc2N1 [ZIPRASIDONE] | 18 |  |  |  | > 30 | 5.11 | > 30 | > 30
